Here are results for ten compounds from patent publication EP3033337B1, “SUBSTITUTED IMIDAZOLES AS N-TYPE CALCIUM CHANNEL BLOCKERS” (Janssen Pharmaceutica NV, priority 2013, dated 2015).

Where two headings read alike, the source gives them in different places.

The IC50 is the point on the concentration scale where inhibition reaches its midpoint. A word on the inhibition: it is the relative decrease from the control value, in per cent.

Experiment [1] concerns the target T1, human N-type Ca channel (Homo sapiens, UniProt Q00975). Briefly: Calcium influx assay (FDSS), KCl depolarization, Fluo8 dye. It counts as cell-based. Also noted: host or cells: HEK 293. In short, it runs like this: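 HEK293 cells stably expressing the human N-type Ca channel were loaded with Fluo8 and washed in choline-based buffer (pH 7.2, 2 mM CaCl2, 2 mM KCl). Cells were preincubated with serially diluted compound for 15 min in the dark. Ca influx was then recorded by fluorescence after depolarization with 100 mM KCl.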

The test system of experiment [2] is CFA-induced mechanical allodynia. Briefly: Complete Freund's Adjuvant (CFA) induced mechanical allodynia, Von Frey test. It counts as in vivo. How it is done:
Animals arrived and were acclimatized for 1-2 weeks in a temperature-controlled room with a 12 h light/dark cycle and allowed free access to standard laboratory chow and water.
CFA (Sigma) was injected intra-plantar (75 µg/150 µL) from a concentration of 1:1 (diluted 1 mg/ mL of CFA in 1 mL ofPBS). CFA-induced mechanical allodynia was quantified by a Von frey test on day 2 (48 h post injection of CFA) and animals were randomized based on iPWT response (Dixon 1980). […] Animals were administered a compound of Formula (I) through appropriate route based on their pharmacokinetic properties. Responses were measured with a Von-Frey filament. The maximum possible effect (% MPE) was determined as 100% if sensitivity in ipsilateral paw neared that of the contralateral paw. Values from the vehicle-treated animals were considered 0%. The compound effect was determined based on these values.

The target in experiment [3] is T1, human N-type Ca channel. Briefly: Electrophysiological response, QPatch (depolarization -80 mV to +20 mV). (In general: In patch-clamp work, channel activity is measured electrically.)
The next experiment deals with Rats. Briefly: Sciatic nerve ligation (SNL) model of neuropathic pain, L5/L6 spinal nerve ligation, von Frey filaments. The note with it: response at Tmax. The experiment is classed as in vivo. The text has this:
Left L5 and L6 spinal nerves are isolated adjacent to the vertebral column and were ligated with 5-0 silk suture distal to the dorsal root ganglion, as described by Kim and Chung (1992). The incision was closed with the help of GLUture topical tissue adhesive. At 14 days post-surgery (one day prior to test compound administration), mechanical allodynia was quantified using eight von Frey filaments, calibrated in the range 0.4-15.1 g (Nielsen et al 2005). Rats were placed into individual plastic containers on top of a suspended wire mesh grid and acclimated to the test chambers for at least 15 min. Filaments were applied perpendicular to the mid-plantar paw surface, with enough force to cause slight buckling, and held in place for 6-8 sec until a response was noted as a sharp paw withdrawal, flinching, licking and/or biting immediately upon removal of the filament (Nielsen et al 2005). […] Test compounds of Formula (I) were administered and a response was measured at Tmax. The maximum possible effect (% MPE) was determined to be 100% if the sensitivity in the ipsilateral paw neared that of the contralateral paw. Values from vehicle-treated animals were considered 0 %. The compound effect was determined based on these values.

The mark [4] stands for this setting: HEK 293 cells expressing human N-type Ca channel, 100 mM KCl, read-out: N Type IC50 Data FDSS.
The mark [5] stands for this setting: N Type IC50 Data Qpatch Pulse=1, Pulse=1, concentration range 0.01-1 µM.
Where [6] appears, read: N Type IC50 Data Qpatch Pulse=15, Pulse=15, concentration range 0.01-1 µM.
The mark [7] stands for this setting: N Type IC50 Data Qpatch Pulse=1, Pulse=1, concentration range 0.3-10 µM.
Setting [8] is: N Type IC50 Data Qpatch Pulse=15, Pulse=15, concentration range 0.3-10 µM.
Where [9] appears, read: read-out: Qpatch Pulse=1 (percent inhibition).

T1 sequence (Q00975 whole entry): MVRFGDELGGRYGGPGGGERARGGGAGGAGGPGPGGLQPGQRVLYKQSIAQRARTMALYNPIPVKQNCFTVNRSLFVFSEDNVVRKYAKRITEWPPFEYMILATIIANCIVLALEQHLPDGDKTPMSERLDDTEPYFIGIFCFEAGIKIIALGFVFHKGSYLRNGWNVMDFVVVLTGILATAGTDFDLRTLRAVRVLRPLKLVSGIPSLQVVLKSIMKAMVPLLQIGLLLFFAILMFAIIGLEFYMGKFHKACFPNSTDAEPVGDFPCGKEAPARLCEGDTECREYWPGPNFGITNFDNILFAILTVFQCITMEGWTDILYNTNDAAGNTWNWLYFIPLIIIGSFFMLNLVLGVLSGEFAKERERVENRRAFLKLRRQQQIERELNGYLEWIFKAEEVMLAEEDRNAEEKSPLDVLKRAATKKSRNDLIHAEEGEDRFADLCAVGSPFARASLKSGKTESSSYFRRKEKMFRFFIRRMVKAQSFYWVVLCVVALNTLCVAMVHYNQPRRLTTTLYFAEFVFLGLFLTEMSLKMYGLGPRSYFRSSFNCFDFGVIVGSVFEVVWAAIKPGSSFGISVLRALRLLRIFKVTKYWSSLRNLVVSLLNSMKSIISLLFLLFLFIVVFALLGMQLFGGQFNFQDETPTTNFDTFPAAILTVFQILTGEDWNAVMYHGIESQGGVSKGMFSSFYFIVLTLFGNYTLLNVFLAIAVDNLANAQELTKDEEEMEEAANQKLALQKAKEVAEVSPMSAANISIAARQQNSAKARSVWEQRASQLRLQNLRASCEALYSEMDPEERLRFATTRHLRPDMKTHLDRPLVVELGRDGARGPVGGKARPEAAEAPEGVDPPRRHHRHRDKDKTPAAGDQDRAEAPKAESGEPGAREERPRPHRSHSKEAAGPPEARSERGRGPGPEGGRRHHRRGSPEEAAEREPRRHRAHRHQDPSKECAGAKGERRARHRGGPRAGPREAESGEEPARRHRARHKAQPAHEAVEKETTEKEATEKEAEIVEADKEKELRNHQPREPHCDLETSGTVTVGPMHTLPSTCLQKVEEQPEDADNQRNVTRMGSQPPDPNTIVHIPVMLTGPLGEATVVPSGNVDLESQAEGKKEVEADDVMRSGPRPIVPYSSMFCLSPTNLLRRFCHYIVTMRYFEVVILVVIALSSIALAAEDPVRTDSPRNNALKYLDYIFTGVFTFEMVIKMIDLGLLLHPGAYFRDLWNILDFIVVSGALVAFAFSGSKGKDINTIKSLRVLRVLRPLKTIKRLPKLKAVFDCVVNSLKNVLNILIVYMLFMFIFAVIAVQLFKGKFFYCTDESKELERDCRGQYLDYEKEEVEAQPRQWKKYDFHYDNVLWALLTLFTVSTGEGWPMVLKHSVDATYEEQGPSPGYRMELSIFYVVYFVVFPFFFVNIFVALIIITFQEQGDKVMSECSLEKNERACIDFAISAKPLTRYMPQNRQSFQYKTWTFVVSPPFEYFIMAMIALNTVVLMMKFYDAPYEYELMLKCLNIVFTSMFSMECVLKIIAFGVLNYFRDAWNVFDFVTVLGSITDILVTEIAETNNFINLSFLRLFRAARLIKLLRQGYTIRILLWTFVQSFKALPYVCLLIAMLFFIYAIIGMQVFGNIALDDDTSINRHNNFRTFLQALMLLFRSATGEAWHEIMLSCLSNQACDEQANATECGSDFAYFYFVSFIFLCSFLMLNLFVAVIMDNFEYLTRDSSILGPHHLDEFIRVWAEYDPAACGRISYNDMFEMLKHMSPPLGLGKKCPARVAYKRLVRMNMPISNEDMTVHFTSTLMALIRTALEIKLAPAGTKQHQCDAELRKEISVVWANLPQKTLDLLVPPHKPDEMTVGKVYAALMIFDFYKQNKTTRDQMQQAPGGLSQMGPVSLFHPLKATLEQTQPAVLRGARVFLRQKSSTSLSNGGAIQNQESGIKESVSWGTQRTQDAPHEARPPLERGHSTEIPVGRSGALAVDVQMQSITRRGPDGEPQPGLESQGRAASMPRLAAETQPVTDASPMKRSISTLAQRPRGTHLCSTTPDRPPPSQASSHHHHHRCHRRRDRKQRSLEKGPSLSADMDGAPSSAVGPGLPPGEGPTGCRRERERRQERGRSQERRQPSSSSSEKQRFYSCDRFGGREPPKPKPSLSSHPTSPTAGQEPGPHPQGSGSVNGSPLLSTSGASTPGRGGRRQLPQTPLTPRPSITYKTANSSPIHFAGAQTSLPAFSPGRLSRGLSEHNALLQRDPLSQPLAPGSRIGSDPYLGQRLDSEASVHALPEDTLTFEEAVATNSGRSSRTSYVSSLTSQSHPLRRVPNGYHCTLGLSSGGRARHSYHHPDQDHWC
T1 sequence (P54284 whole entry partner): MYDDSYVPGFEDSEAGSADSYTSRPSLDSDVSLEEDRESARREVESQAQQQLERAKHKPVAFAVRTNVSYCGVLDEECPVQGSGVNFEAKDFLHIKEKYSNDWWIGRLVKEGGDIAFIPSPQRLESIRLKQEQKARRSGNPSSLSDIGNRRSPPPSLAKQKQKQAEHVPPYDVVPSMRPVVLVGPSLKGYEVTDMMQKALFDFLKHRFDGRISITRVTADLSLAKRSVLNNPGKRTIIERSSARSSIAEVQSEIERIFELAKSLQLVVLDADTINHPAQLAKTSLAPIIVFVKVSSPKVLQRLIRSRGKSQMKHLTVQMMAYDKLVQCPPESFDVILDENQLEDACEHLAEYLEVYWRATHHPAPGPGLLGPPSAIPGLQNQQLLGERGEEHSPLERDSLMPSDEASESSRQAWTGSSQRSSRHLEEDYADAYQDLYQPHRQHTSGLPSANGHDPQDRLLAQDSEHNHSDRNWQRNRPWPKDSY
T1 sequence (P54289 25-956 partner limits assumed): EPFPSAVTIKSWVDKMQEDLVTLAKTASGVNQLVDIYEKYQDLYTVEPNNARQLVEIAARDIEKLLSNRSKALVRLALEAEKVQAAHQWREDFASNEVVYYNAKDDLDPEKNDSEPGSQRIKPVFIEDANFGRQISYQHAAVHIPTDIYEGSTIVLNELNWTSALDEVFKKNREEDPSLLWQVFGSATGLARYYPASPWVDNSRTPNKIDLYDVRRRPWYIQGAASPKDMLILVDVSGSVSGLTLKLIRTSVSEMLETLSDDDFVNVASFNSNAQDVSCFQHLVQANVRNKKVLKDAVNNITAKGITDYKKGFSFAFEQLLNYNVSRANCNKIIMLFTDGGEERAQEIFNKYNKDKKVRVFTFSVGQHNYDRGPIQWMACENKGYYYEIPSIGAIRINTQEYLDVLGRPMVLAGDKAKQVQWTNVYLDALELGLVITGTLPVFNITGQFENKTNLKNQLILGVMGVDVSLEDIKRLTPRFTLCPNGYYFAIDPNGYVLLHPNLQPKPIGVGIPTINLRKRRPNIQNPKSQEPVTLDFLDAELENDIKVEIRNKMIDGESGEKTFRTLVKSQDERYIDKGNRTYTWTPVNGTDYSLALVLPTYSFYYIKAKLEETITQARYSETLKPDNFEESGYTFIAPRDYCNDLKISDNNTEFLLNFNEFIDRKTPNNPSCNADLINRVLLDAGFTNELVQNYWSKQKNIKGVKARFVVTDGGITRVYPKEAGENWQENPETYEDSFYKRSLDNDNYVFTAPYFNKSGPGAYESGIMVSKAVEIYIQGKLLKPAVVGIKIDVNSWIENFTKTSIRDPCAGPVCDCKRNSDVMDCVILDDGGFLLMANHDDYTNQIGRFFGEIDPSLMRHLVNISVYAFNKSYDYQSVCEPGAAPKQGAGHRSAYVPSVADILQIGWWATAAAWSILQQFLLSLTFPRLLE
T1 sequence (P54289 957-1103 partner limits assumed): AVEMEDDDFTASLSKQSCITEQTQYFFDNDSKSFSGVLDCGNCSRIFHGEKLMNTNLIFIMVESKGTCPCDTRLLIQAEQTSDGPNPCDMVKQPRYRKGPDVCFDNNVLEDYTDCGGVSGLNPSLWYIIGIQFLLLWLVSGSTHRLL

For the compound `COc1ccccc1-c1nc(C2CC(C)(C)OC(C)(C)C2)cn1-c1ccc(C#N)cc1` [Compound 1, 4-[2-(2-Methoxyphenyl)-4-(2,2,6,6-tetramethyltetrahydro-2H-pyran-4-yl)-1H-imidazol-1-yl]benzonitrile], the IC50 at human N-type Ca channel [1] (setting [4]) is 41 nM; against human N-type Ca channel [3] (setting [5]) it was 365 nM; against human N-type Ca channel [3] (setting [6]), > 1000 nM. Also, the “CFA (% Reversal)” value in experiment [2] (Dose 12.5 mg/kg) is 19.73±8.25%; in experiment [2] (Dose 25 mg/kg) it was 37.62±7.17%; in experiment [2] (Dose 50 mg/kg), 58.8±10.22%; in experiment [2] (Dose 100 mg/kg), 75.26±8.96%. Besides, the “SNL(%MPE)” value came to 22.21±7.61% in the experiment with Rats (Dose 12.5 mg/kg), 40.9±20.29% in the experiment on Rats (Dose 25 mg/kg) and 75±13.01% with Rats (Dose 100 mg/kg).
For the compound `COc1ncccc1-c1nc(C2CC(C)(C)OC(C)(C)C2)cn1-c1ccc(F)cc1` [Compound 10, 3-(1-(4-fluorophenyl)-4-(2,2,6,6-tetramethyltetrahydro-2H-pyran-4-yl)-1H-imidazol-2-yl)-2-methoxypyridine], the IC50 at human N-type Ca channel [1] (setting [4]) was determined as 401 nM; against human N-type Ca channel [3] (setting [7]), 5920 nM; on human N-type Ca channel [3] (setting [8]) it was 1470 nM. Further, the “SNL(%MPE)” value in the experiment on Rats (Dose 3 mg/kg) was found to be 12.17±11.24%; in the experiment on Rats (Dose 10 mg/kg) it was 40.53±13.64%; with Rats (Dose 30 mg/kg), 54.59±13.37%; in the experiment on Rats (Dose 100 mg/kg) it was 85.45±8.44%.
For `COc1ncccc1-c1nc(C2CC(C)(C)OC(C)(C)C2)cn1-c1ccc(Cl)cc1` [Compound 11, 3-(1-(4-chlorophenyl)-4-(2,2,6,6-tetramethyltetrahydro-2H-pyran-4-yl)-1H-imidazol-2-yl)-2-methoxypyridine], the IC50 on human N-type Ca channel [1] came out at 82 nM. Moreover, the “CFA (% Reversal)” value in experiment [2] (Dose 3 mg/kg) came to 20.97±7.88%; in experiment [2] (Dose 10 mg/kg), 41.12±5.14%; in experiment [2] (Dose 30 mg/kg) it was 55.8±11.32%; in experiment [2] (Dose 60 mg/kg), 76.4±3.78%. For the same compound, the inhibition at 10 µM came to 63% on human N-type Ca channel [3] (setting [9]) and 21% at human N-type Ca channel [3] (read-out: Qpatch Pulse=15 (percent inhibition)). Further, the “SNL(%MPE)” value with Rats (Dose 3 mg/kg) is recorded as 28.29± 10.84%; in the experiment with Rats (Dose 10 mg/kg), 49.01±9.93%; in the experiment on Rats (Dose 30 mg/kg), 70.69±10.3%; in the experiment with Rats (Dose 60 mg/kg), 96.18±3.22%.
In the case of `COc1ccccc1-c1nc(C2CC(C)(C)OC(C)(C)C2)cn1-c1ccc(Cl)cc1` [Compound 38, 1-(4-chlorophenyl)-2-(2-methoxyphenyl)-4-(2,2,6,6-tetramethyltetrahydro-2H-pyran-4-yl)-1H-imidazole], the IC50 on human N-type Ca channel [1] (setting [4]) was 372 nM; against human N-type Ca channel [3] (setting [7]) it was 2400 nM; against human N-type Ca channel [3] (setting [8]), 769 nM. Further, the “SNL(%MPE)” value in the experiment with Rats (Dose 50 mg/kg) was determined as 87.01± 9.25%.
Regarding `COc1ncccc1-c1nc(C2(O)CC(C)(C)OC(C)(C)C2)cn1-c1ccc(C#N)c(F)c1` [Compound 119, 2-fluoro-4-(4-(4-hydroxy-2,2,6,6-tetramethyltetrahydro-2H-pyran-4-yl)-2-(2-methoxypyridin-3-yl)-1H-imidazol-1-yl)benzonitrile], the IC50 at human N-type Ca channel [1] (setting [4]) was determined as 1290 nM. At human N-type Ca channel [3] (setting [9]), the inhibition at 10 µM was 28%.
For the compound `COc1cnccc1-c1nc(C2(O)CC(C)(C)OC(C)(C)C2)cn1-c1ccc(Cl)cc1` [Compound 120, 4-(1-(4-chlorophenyl)-2-(3-methoxypyridin-4-yl)-1H-imidazol-4-yl)-2,2,6,6-tetramethyltetrahydro-2H-pyran-4-ol], the figures for the IC50 on human N-type Ca channel [1] (setting [4]), at human N-type Ca channel [3] (setting [7]) and against human N-type Ca channel [3] (setting [8]) were 108 nM, 1600 nM and 9100 nM, respectively.
For the compound `CC1(C)CC(c2cn(-c3ccc(Cl)cc3)c(-c3ccc[nH]c3=O)n2)CC(C)(C)O1` [Compound 122, 3-(1-(4-chlorophenyl)-4-(2,2,6,6-tetramethyltetrahydro-2H-pyran-4-yl)-1H-imidazol-2-yl)pyridin-2(1H)-one], the IC50 is 3010 nM on human N-type Ca channel [1] (setting [4]); > 1000 nM on human N-type Ca channel [3] (read-out: N Type IC50 Data Qpatch Pulse=1, Pulse=1, concentration range 0.01-1 µM); > 1000 nM at human N-type Ca channel [3] (read-out: N Type IC50 Data Qpatch Pulse=15, Pulse=15, concentration range 0.01-1 µM).
As to `COc1ccccc1-c1nc(C2CC(C)(C)OC(C)(C)C2)cn1-c1ccc(C#N)c(Cl)c1` [Compound 123, 2-chloro-4-(2-(2-methoxyphenyl)-4-(2,2,6,6-tetramethyltetrahydro-2H-pyran-4-yl)-1H-imidazol-1-yl)benzonitrile], the IC50 on human N-type Ca channel [1] (setting [4]) is 129 nM; against human N-type Ca channel [3] (setting [5]), 468 nM; against human N-type Ca channel [3] (setting [6]) it was > 1000 nM.
For the compound `COc1ccccc1-c1nc(C2=CC(C)(C)OC(C)(C)C2)cn1-c1ccc(Cl)cc1` [Compound 124, 1-(4-chlorophenyl)-2-(2-methoxyphenyl)-4-(2,2,6,6-tetramethyl-3,6-dihydro-2H-pyran-4-yl)-1H-imidazole], the half-inhibitory concentration (IC50) was 103 nM on human N-type Ca channel [1] (setting [4]), 2500 nM at human N-type Ca channel [3] (setting [7]) and 1600 nM against human N-type Ca channel [3] (setting [8]).
`COc1ccccc1-c1nc(C2=CC(C)(C)OC(C)(C)C2)cn1-c1ccc(Br)c(F)c1` [Compound 125, 1-(4-bromo-3-fluorophenyl)-2-(2-methoxyphenyl)-4-(2,2,6,6-tetramethyl-3,6-dihydro-2H-pyran-4-yl)-1H-imidazole]: the values for the concentration for half-maximal inhibition (IC50) at human N-type Ca channel [1] (setting [4]), against human N-type Ca channel [3] (setting [7]) and against human N-type Ca channel [3] (setting [8]) were 313 nM, 2100 nM and 2300 nM, respectively.
